{"source": "ChEMBL document CHEMBL5291721", "about": "“A preclinical secondary pharmacology resource illuminates target-adverse drug reaction associations of marketed drugs” (Nat Commun, 2023); further: assay procedure not described here", "key": {"[1]": {"target": "T1, 5-hydroxytryptamine receptor 1A (Homo sapiens, UniProt P08908)", "T1 sequence (P08908 whole entry)": "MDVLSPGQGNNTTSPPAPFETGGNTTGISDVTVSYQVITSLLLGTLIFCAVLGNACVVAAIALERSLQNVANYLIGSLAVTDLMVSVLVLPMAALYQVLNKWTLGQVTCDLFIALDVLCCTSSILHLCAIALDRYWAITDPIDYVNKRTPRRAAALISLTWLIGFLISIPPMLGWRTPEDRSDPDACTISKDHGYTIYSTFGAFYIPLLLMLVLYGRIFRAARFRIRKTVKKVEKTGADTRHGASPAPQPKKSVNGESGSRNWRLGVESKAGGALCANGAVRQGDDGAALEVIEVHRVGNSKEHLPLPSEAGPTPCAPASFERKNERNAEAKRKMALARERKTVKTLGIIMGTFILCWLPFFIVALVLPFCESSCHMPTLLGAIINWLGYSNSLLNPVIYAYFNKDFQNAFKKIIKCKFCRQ"}, "[2]": {"target": "T2, Muscarinic acetylcholine receptor M1 (Homo sapiens, UniProt P11229)", "T2 sequence (P11229 whole entry)": "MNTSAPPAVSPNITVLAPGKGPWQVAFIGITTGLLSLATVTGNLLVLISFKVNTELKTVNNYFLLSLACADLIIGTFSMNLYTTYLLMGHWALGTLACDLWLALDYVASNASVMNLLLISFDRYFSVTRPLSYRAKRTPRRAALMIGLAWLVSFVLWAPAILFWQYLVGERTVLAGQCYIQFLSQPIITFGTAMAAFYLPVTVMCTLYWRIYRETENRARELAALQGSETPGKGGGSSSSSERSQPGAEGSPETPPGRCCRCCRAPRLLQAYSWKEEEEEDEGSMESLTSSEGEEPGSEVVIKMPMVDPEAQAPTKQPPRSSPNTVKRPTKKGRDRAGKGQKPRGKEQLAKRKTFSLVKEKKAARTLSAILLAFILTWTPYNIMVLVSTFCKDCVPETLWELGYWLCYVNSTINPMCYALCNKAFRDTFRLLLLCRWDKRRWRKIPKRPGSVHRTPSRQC", "format": "functional, cell-based"}, "Thromboxane A2 receptor": {"target": "T3, Thromboxane A2 receptor (Homo sapiens, UniProt P21731)", "T3 sequence (P21731 whole entry)": "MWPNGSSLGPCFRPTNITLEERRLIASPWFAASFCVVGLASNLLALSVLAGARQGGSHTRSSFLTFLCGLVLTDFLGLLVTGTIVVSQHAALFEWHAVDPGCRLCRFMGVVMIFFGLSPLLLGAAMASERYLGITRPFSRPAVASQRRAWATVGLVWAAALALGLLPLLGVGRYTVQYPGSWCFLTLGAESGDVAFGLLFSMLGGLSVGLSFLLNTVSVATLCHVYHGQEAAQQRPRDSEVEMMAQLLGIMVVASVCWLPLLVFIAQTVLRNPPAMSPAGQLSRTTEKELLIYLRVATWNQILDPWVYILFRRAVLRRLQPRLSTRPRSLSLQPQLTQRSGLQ", "format": "functional"}}}
{"smiles": "COc1ccccc1N1CCN(CCCNc2cc(=O)n(C)c(=O)n2C)CC1", "values": [{"measurement": "AC50", "setting": "[1]", "result": 0.26, "unit": "µM"}]}
{"smiles": "CC(C[N+](C)(C)C)OC(N)=O", "note": "(stereo not drawn) [BETHANECHOL]", "values": [{"measurement": "AC50", "setting": "[2]", "result": 26, "unit": "µM"}]}
{"smiles": "CC(C)OC(=O)CCC/C=C\\C[C@@H]1[C@@H](CC[C@@H](O)CCc2ccccc2)[C@H](O)C[C@@H]1O", "note": "[LATANOPROST]", "values": [{"measurement": "AC50", "setting": "Thromboxane A2 receptor", "result": "> 10", "unit": "µM"}]}
